Source: the supplement of paper PMC10307832

Columns and labels:
Assay in all cases: relative viability (nuclei count vs DMSO), 5 days (fraction); higher = more cells survive
NCI-H1793 = tested on: NCI-H1793
Summary of the method: (§1)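 Lung cancer cell lines were pin-tool dosed in 1536-well plates on the day after seeding, with either a lone drug or a fixed anchor-drug dose plus five library-drug doses (not always all listed) in √10 steps. Nuclei were counted on 4× images after 5 days. Relative viability is the ratio of treated-well to vehicle-well nuclei counts, with each value a median of duplicate plates.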

SK-MES-1 = tested on: SK-MES-1
Summary of the method: as §1

NCI-H2347 = tested on: NCI-H2347
Summary of the method: as §1

NCI-H2009 = tested on: NCI-H2009
Summary of the method: as §1

COR-L23 = tested on: COR-L23
Summary of the method: as §1

NCI-H1755 = tested on: NCI-H1755
Summary of the method: as §1

NCI-H2228 = tested on: NCI-H2228
Summary of the method: as §1

NCI-H838 = tested on: NCI-H838
Summary of the method: as §1

NCI-H1355 = tested on: NCI-H1355
Summary of the method: as §1

NCI-H1993 = tested on: NCI-H1993
Summary of the method: as §1

NCI-H1395 = tested on: NCI-H1395
Summary of the method: as §1

HARA = tested on: HARA
Summary of the method: as §1

NCI-H1734 = tested on: NCI-H1734
Summary of the method: as §1

HOP-62 = tested on: HOP-62
Summary of the method: as §1

UMC-11 = tested on: UMC-11
Summary of the method: as §1

NCI-H647 = tested on: NCI-H647
Summary of the method: as §1

NCI-H1792 = tested on: NCI-H1792
Summary of the method: as §1

COR-L 105 = tested on: COR-L 105
Summary of the method: as §1

NCI-H2170 = tested on: NCI-H2170
Summary of the method: as §1

HCC-15 = tested on: HCC-15
Summary of the method: as §1

Work on `O=c1cc(N2CCOCC2)oc2c(-c3cccc4c3sc3ccccc34)cccc12` + CC1(C)CCC(c2ccc(Cl)cc2)=C(CN2CCN(c3ccc(C(=O)NS(=O)(=O)c4ccc(N[C@H](CCN5CCOCC5)CSc5ccccc5)c(S(=O)(=O)C(F)(F)F)c4)cc3)CC2)C1 [Navitoclax] (partner 0.5 µM) yielded a relative viability (NCI-H1793; first compound 0.01 µM) of 0.471, a relative viability (NCI-H1793; first compound 0.03162 µM) of 0.468 and a relative viability (NCI-H1793; first compound 0.1 µM) of 0.54. The relative viability (NCI-H1793; first compound 0.3162 µM) was 0.367, the relative viability (NCI-H1793; first compound 1 µM) was 0.382 and the relative viability (SK-MES-1; first compound 0.01 µM) was 1.28. It also gave a relative viability (SK-MES-1; first compound 0.03162 µM) of 1.26, a relative viability (SK-MES-1; first compound 0.1 µM) of 1.43 and a relative viability (SK-MES-1; first compound 0.3162 µM) of 1.26. The relative viability (SK-MES-1; first compound 1 µM) was 1.13, the relative viability (NCI-H2347; first compound 0.01 µM) was 1.11 and the relative viability (NCI-H2347; first compound 0.03162 µM) was 0.804. The relative viability (NCI-H2347; first compound 0.1 µM) was 0.844, the relative viability (NCI-H2347; first compound 0.3162 µM) was 0.754 and the relative viability (NCI-H2347; first compound 1 µM) was 0.897. It also gave a relative viability (NCI-H2009; first compound 0.01 µM) of 1.14, a relative viability (NCI-H2009; first compound 0.03162 µM) of 1.16 and a relative viability (NCI-H2009; first compound 0.1 µM) of 1.14. It also gave a relative viability (NCI-H2009; first compound 0.3162 µM) of 1.19, a relative viability (NCI-H2009; first compound 1 µM) of 1.05 and a relative viability (COR-L23; first compound 0.01 µM) of 1. The relative viability (COR-L23; first compound 0.03162 µM) was 1.02, the relative viability (COR-L23; first compound 0.1 µM) was 0.976 and the relative viability (COR-L23; first compound 0.3162 µM) was 1.05. It also gave a relative viability (COR-L23; first compound 1 µM) of 0.98, a relative viability (NCI-H1755; first compound 0.01 µM) of 0.983 and a relative viability (NCI-H1755; first compound 0.03162 µM) of 0.949. It also gave a relative viability (NCI-H1755; first compound 0.1 µM) of 1.02, a relative viability (NCI-H1755; first compound 0.3162 µM) of 0.972 and a relative viability (NCI-H1755; first compound 1 µM) of 0.999. It also gave a relative viability (NCI-H2228; first compound 0.03162 µM) of 0.895, a relative viability (NCI-H2228; first compound 0.1 µM) of 1.16 and a relative viability (NCI-H2228; first compound 0.3162 µM) of 0.897. The relative viability (NCI-H2228; first compound 1 µM) was 1.19, the relative viability (NCI-H838; first compound 0.01 µM) was 1.17 and the relative viability (NCI-H838; first compound 0.03162 µM) was 1.13. The relative viability (NCI-H838; first compound 0.1 µM) was 1.13, the relative viability (NCI-H838; first compound 0.3162 µM) was 1.1 and the relative viability (NCI-H838; first compound 1 µM) was 1.1. It also gave a relative viability (NCI-H1355; first compound 0.01 µM) of 0.956, a relative viability (NCI-H1355; first compound 0.03162 µM) of 0.981 and a relative viability (NCI-H1355; first compound 0.3162 µM) of 0.941. For the same molecule, the relative viability (NCI-H1355; first compound 1 µM) was 0.891, the relative viability (NCI-H1993; first compound 0.01 µM) was 1.02 and the relative viability (NCI-H1993; first compound 0.03162 µM) was 0.953. It also gave a relative viability (NCI-H1993; first compound 0.1 µM) of 0.976, a relative viability (NCI-H1993; first compound 0.3162 µM) of 0.921 and a relative viability (NCI-H1993; first compound 1 µM) of 0.887. For the same molecule, the relative viability (NCI-H1395; first compound 0.01 µM) was 1.08, the relative viability (NCI-H1395; first compound 0.03162 µM) was 1.16 and the relative viability (NCI-H1395; first compound 0.1 µM) was 1.38. For the same molecule, the relative viability (NCI-H1395; first compound 0.3162 µM) was 1.17, the relative viability (NCI-H1395; first compound 1 µM) was 1.23 and the relative viability (HARA; first compound 0.01 µM) was 1.11. It also gave a relative viability (HARA; first compound 0.03162 µM) of 1.13, a relative viability (HARA; first compound 0.1 µM) of 1.15 and a relative viability (HARA; first compound 0.3162 µM) of 1.17. It also gave a relative viability (HARA; first compound 1 µM) of 1.14, a relative viability (NCI-H1734; first compound 0.01 µM) of 0.921 and a relative viability (NCI-H1734; first compound 0.03162 µM) of 0.807. It also gave a relative viability (NCI-H1734; first compound 0.1 µM) of 0.835, a relative viability (NCI-H1734; first compound 0.3162 µM) of 0.708 and a relative viability (NCI-H1734; first compound 1 µM) of 0.851. The relative viability (HOP-62; first compound 0.01 µM) was 0.935, the relative viability (HOP-62; first compound 0.03162 µM) was 1.08 and the relative viability (HOP-62; first compound 0.1 µM) was 1.02. For the same molecule, the relative viability (HOP-62; first compound 0.3162 µM) was 0.854, the relative viability (HOP-62; first compound 1 µM) was 1.07 and the relative viability (UMC-11; first compound 0.01 µM) was 0.302. It also gave a relative viability (UMC-11; first compound 0.03162 µM) of 0.339, a relative viability (UMC-11; first compound 0.1 µM) of 0.255 and a relative viability (UMC-11; first compound 0.3162 µM) of 0.333. The relative viability (UMC-11; first compound 1 µM) was 0.343, the relative viability (NCI-H647; first compound 0.01 µM) was 0.985 and the relative viability (NCI-H647; first compound 0.3162 µM) was 1.06. It also gave a relative viability (NCI-H647; first compound 1 µM) of 1.1, a relative viability (NCI-H1792; first compound 0.01 µM) of 0.604 and a relative viability (NCI-H1792; first compound 0.03162 µM) of 0.595. For the same molecule, the relative viability (NCI-H1792; first compound 0.1 µM) was 0.368, the relative viability (NCI-H1792; first compound 0.3162 µM) was 0.564 and the relative viability (NCI-H1792; first compound 1 µM) was 0.556. The relative viability (COR-L 105; first compound 0.01 µM) was 0.91, the relative viability (COR-L 105; first compound 0.03162 µM) was 0.817 and the relative viability (COR-L 105; first compound 0.1 µM) was 0.79. The relative viability (COR-L 105; first compound 0.3162 µM) was 0.73, the relative viability (COR-L 105; first compound 1 µM) was 0.676 and the relative viability (NCI-H2170; first compound 0.01 µM) was 0.69. The relative viability (NCI-H2170; first compound 0.03162 µM) was 0.741, the relative viability (NCI-H2170; first compound 0.1 µM) was 0.599 and the relative viability (NCI-H2170; first compound 0.3162 µM) was 0.62. It also gave a relative viability (NCI-H2170; first compound 1 µM) of 0.605, a relative viability (HCC-15; first compound 0.01 µM) of 0.788 and a relative viability (HCC-15; first compound 0.03162 µM) of 0.706. For the same molecule, the relative viability (HCC-15; first compound 0.1 µM) was 0.69, the relative viability (HCC-15; first compound 0.3162 µM) was 0.691 and the relative viability (HCC-15; first compound 1 µM) was 0.667.
